Source: US5238936A, “Trisubstituted triazines” (Adir et Compagnie, priority 1991, dated 1993)

Experiments:
line DC-3F/AD [1] = assay: Cytotoxicity (Microculture Tetrazolium Assay): reversal of resistance to actinomycin D, line DC-3F/AD; type: cell-based, Chinese hamster; conditions: 4 days
Excerpt: The pharmacological study of the compounds of the present invention consisted first of all in an evaluation in vitro carried out on resistant cells. The parameter measured is the cytotoxicity of the antitumour drug, quantified in the absence and in the presence of the reversing compound.
The cells are distributed on microplates and exposed to the cytotoxic compounds (actinomycin D for line DC-3F/AD and adriamycin for line KB-Al) at 9 concentrations (2 by 2 series dilutions). The compounds tested for their capacity to reverse MDR are added at the same time as the cytotoxic agent.
The cells are then incubated for 4 days. […] The results are expressed as a reversion factor (RF): PG,29 [formula]

line DC-3F/AD [2] = assay: Flow cytometry: intracellular accumulation of adriamycin by cells of the line DC-3F/AD; type: cell-based, Chinese hamster; conditions: ADR 50 μM, 5 hours
Excerpt: Also measured was the effect of the compounds on the intracellular concentration of the cytotoxic agent. In effect, the known compounds for reversing MDR act by increasing the intracellular concentration of cytotoxic agent. This effect is the consequence of inhibiting the action of gP 170 which is responsible for the efflux of the drug.
By measuring that fluorescence, it is thus possible to obtain a relative measurement of the intracellular concentration of ADR.
The cells 500×10^3 per ml were exposed simultaneously to ADR at a fixed concentration (50 μM) and to the tested compounds at various concentrations. After 5 hours' incubation, the intracellular accumulation of ADR was evaluated by FCM. […] The analysis of each of the samples was carried out on a total of 10,000 cells at a rate of 1,000 cells per second.
The results were presented in the form of linear histograms of the intracellular ADR fluorescence.
Expression of the results: for each of the histograms the mean fluorescence per channel (MEAN) was determined by the information system of the apparatus. For all experiments:
a negative control (cells without ADR) fixed the autofluorescence threshold.
a positive control (cells with ADR) determined the MEAN value=MN1.
the "test" tubes (cells with ADR and with compound) were used to determine, for each of the compounds and at each of the concentrations, the MEAN values=MN2.
The results are expressed in the form of variations from the mean fluorescence obtained for each of the "test" tubes (MN2) in relation to the mean fluorescence obtained with the positive control (MNl): VAR-MEAN=MN2-MN1. The parameter expressed is thus the increase in ADR fluorescence in the presence of the tested compounds.

Row | Compound | Reversion factors (cytotoxicity) with the line DC-3F/AD (line DC-3F/AD [1]; 1 μM compound) | Reversion factors (cytotoxicity) with the line DC-3F/AD (line DC-3F/AD [1]; 5 μM compound) | VAR-MEAN (increase in ADR fluorescence), line DC-3F/AD (line DC-3F/AD [2]; 1.0 μM compound) | VAR-MEAN (increase in ADR fluorescence), line DC-3F/AD (line DC-3F/AD [2]; 5.0 μM compound) | VAR-MEAN (increase in ADR fluorescence), line DC-3F/AD (line DC-3F/AD [2]; 10 μM compound) | VAR-MEAN (increase in ADR fluorescence), line DC-3F/AD (line DC-3F/AD [2]; […] compound) | Reversion factors (cytotoxicity) with the line DC-3F/AD (line DC-3F/AD [1]; 0.5 μM compound)
1 | C=CCNc1nc(NCC=C)nc(N2CCC(NCC3c4ccccc4CSc4ccccc43)CC2)n1 (racemic) [Example 26, 2,4-diallylamino-6-{4-[((R,S)-6,11-dihydro-dibenzo[b,e]thiepin-11-yl)methylamino]piperidin-1-yl}-1,3,5-triazine] | 6.8 | 866.6 | 4.3 | 33.5 | 32.6 | 17.8 | –
2 | C=CCNc1nc(NCC=C)nc(N2CCC(NCC3c4ccccc4NC(=O)c4ccccc43)CC2)n1 (racemic) [Example 27, 2,4-diallylamino-6-{4-[((R,S)-6,11-dihydro-dibenzo[b,e]-6-oxoazepin-11-yl)methylamino]piperidin-1-yl}-1,3,5-triazine] | 1.1 | 2.1 | 0.0 | 2.2 | – | 0.0 | –
3 | C=CCNc1nc(NCC=C)nc(N2CCC(NCC3c4ccccc4CS(=O)(=O)c4ccccc43)CC2)n1 (racemic) [Example 32, 2,4-diallylamino-6-{4-[((R,S)-6,11-dihydro-5,5-dioxo-dibenzo[b,e]thiepin-11-yl)methylamino]piperidin-1-yl}-1,3,5-triazine] | 1.3 | 27.4 | 0.0 | 12.4 | – | 1.9 | –
4 | C=CCNc1nc(NCC=C)nc(N2CCN(C3c4ccccc4CCc4ccccc43)CC2)n1 [Example 1, 2,4-Diallylamino-6-{4-(10,11-dihydro-5H-dibenzo[a,d]cyclohepten-5-yl)piperazin-1-yl}-1,3,5-triazine] | 27 | 309 | 8.4 | 16.0 | 19.3 | 4.9 | –
5 | C=CCNc1nc(NCC=C)nc(NCCN2CCN(C3c4ccccc4CCc4ccccc43)CC2)n1 [Example 2, 2,4-Diallylamino-6-{2-[4-(10,11-dihydro-5H-dibenzo[a,d]cyclohepten-5-yl)piperazin-1-yl]ethylamino}-1,3,5-triazine] | 1 | – | 10.1 | 10.2 | 10.5 | 14.7 | 0.8
6 | C=CCNc1nc(NCC=C)nc(N2CCC(NC3c4ccccc4CCc4ccccc43)CC2)n1 [Example 4, 2,4-diallylamino-6-[4-(10,11-dihydro-5H-dibenzo[a,d]cyclohepten-5-ylamino)piperidin-1-yl]-1,3,5-triazine] | 66 | 755 | 16.2 | 25.5 | 28.1 | 21.8 | 21
7 | C=CCNc1nc(NCC=C)nc(NCC(O)CN2CCN(C3c4ccccc4CCc4ccccc43)CC2)n1 (stereo not shown) [Example 6, 2,4-diallylamino-6-{3-[4-(10,11-dihydro-5H-dibenzo[a,d]cyclohepten-5-yl)piperazin-1-yl]-2-hydroxypropylamino}-1,3,5-triazine] | 1.1 | – | 11.0 | 24.3 | 27.6 | 14.4 | 0.9
8 | C=CCNc1nc(NCC=C)nc(NCC2CCN(C3c4ccccc4CCc4ccccc43)CC2)n1 [Example 7, 2,4-diallylamino-6-{[1-(10,11-dihydro-5H-dibenzo[a,d]cyclohepten-5-yl)piperidin-4-yl]methylamino}-1,3,5-triazine] | 1.1 | 9.7 | 3.4 | 10.1 | 17.4 | 3.9 | 1.2
9 | C=CCNc1nc(NCC=C)nc(NCC2CCN(CC3c4ccccc4CCc4ccccc43)CC2)n1 [Example 8, 2,4-diallylamino-6-{[1-[(10,11-dibenzo[a,d]cyclohepten-5-yl)methyl]piperidin-4-yl]methylamino}-1,3,5-triazine] | 1.6 | 353 | 1.3 | 19.3 | 21.0 | 11.4 | 0.8
10 | C=CCNc1nc(NCC=C)nc(N2CCC(NCC3c4ccccc4Oc4ccccc43)CC2)n1 [Example 9, 2,4-diallylamino-6-[4-(xanthen-9-ylmethylamino)-piperidin-1-yl]-1,3,5-triazine] | 39 | 844 | 13.4 | 19.4 | 25.7 | 18.1 | 4.8
11 | C=CCNc1nc(NCC=C)nc(N2CCC(NCC34CCC(c5ccccc53)c3ccccc34)CC2)n1 [Example 10, 2,4-diallylamino-6-{4-[(9,10-dihydro-9,10-ethanoanthracen-9-yl)methylamino]piperidin-1-yl}-1,3,5-triazine] | 1.9 | 96 | 12.3 | 20.2 | 30.7 | 13.5 | 1
12 | C=CCNc1nc(NCC=C)nc(NCCN2CCC(NC3c4ccccc4CCc4ccccc43)CC2)n1 [Example 12, 2,4-diallylamino-6-{2-[4-(10,11-dihydro-5H-dibenzo[a,d]cyclohepten-5-ylamino)piperidin-1-yl]ethylamino}-1,3,5-triazine] | 0.9 | 64 | 5.4 | 10.4 | 18.3 | 10.3 | 0.9
